Data reported in patent US9642851B2, “Indolinone derivative as tyrosine kinase inhibitor” (KBP Biosciences Co., Ltd., priority 2012, dated 2017).
pEC50, pIC50: −log10 of the molar value. Counter-ions that a name gives are not always drawn.

Key:
FGFR3 = target: T1, FGFR3 (Homo sapiens, UniProt P22607); assay: In vitro enzymology inhibitory activity (Caliper mobility shift kinase assay); format: biochemical; details: reaction 1 hour at 28° C., FAM-labelled peptide and ATP
T1 construct: purchased Carna
Experimental: (§1) • (1) Preparation of agents and compounds • (1) 1-fold kinase buffer without MnCl2 (50 mM HEPES, pH=7.5, 0.0015% Brij-35, 10 mM MgCl2, 2 mM DTT) • (2) 1-fold kinase buffer with MnCl2 (50 mM HEPES, pH=7.5, 0.0015% Brij-35, 10 mM MgCl2, 10 mM MnCl2, 2 mM DTT); • (3) Termination solution (100 mM HEPES, pH=7.5, 0.015% Brij-35, 0.2% Coating Reagent #3, 50 mM EDTA); • (4) 2.5-fold kinase solution (the VEGFR2, FGFR1, FGFR3, PDGFRβ kinases were added to the 1-fold kinase buffer respectively to prepare the corresponding 2.5-fold kinase solutions); • (5) 2.5-fold substrate solution: FAM-labelled peptide and ATP were added to the 1-fold kinase buffer to prepare a peptide solution; • (6) 4-fold dilution of the compound solution: the compound was accurately weighed, and dissolved in DMSO. The mixture was mixed sufficiently and evenly to prepare a 10 mM solution. Then the solution was diluted with DMSO to 500 μM, and 4-fold serial dilutions were done at 10 concentrations with a highest concentration of 50μM.
(§2) The calculated inhibition ratio (%)=(max. conversion−sample conversion)/(max. conversion−min. conversion)×100
(§3) The curve fitting was done with the software Xlfit to obtain the IC50 value.

PDGFRβ = target: T2, PDGFRβ (Homo sapiens, UniProt P09619); assay: as above; format: biochemical; details: reaction 5 hour at 28° C., FAM-labelled peptide and ATP
T2 construct: purchased BPS
Experimental: as §1, §2, §3

hERG potassium channel = hERG potassium channel (Homo sapiens, UniProt Q12809); assay: Inhibitory effect on hERG potassium channel with the patch clamp method
Experimental: 1. Preparations of the Solutions and the Compounds
Extracellular fluid (mM): N-2-hydroxyethylpiperazine-N′-2-ethanesulfonic acid (HEPES) 10, NaCl 145, KCl 4, CaCl2 2, MgCl2 1, Glucose 10, adjusted with 1N sodium hydroxide to pH=7.4; the osmotic pressure was adjusted to 290-300 mOsm; filtered and preserved at 4° C.
Intracellular solution (mM): KCl 120, KOH 31.25, CaCl2 5.374, MgCl2 1.75, Ethylene glycol-bis(β-aminoethyl ether)-N,N,N′,N′-tetraacetic acid (EGTA) 10, HEPES 10, Na2-ATP 4, adjusted with 1N potassium hydroxide to pH=7.2; the osmotic pressure was adjusted to 280-290 mOsm; filtered and preserved at −20° C.
Before the experiments, the above stock solutions were diluted with DMSO to the levels that were 333 or 1000 times higher than the experiment concentrations, and then diluted by 333 or 1000 folds with the extracellular fluid to the desired concentrations. The final concentration of DMSO in the extracellular fluid was 0.3% or 0.1%.
2. Electrophysiological experiment. The hERG current was recorded with whole cell patch clamp technique. A cell suspension was added to a 35 mm petri dish, and placed on the object stage of an inverted microscope. After the adherence of cells, the perfusion with the extracellular fluid was done in a perfusion rate of 1-2 ml/min. […] After establishing a whole-cell record, the holding potential was kept at −80 mV. In the voltage stimulation, the depolarization was made at the potential of +60 mV. Then, the repolarization was made at the potential of −50 mV and the hERG tail current was recorded. All of the recordings were conducted after the currents became stable. The extracellular perfusion administration started from the lower concentration, and the administration at each concentration was conducted for 5-10 mines until the current became stable and then the administration at the next concentration was conducted. 3. The Experiment Included the Following Aspects:
The hERG current was recoded on the CHO-K1 cell line stably expressing the hERG channel with the manual patch clamp technology; the inhibition ratio at each concentration was calculated according to the hERG tail current; each of the compounds was measured at five concentrations to deduce the IC50 value; two cells were measured at each concentration; and one positive control drug was used.
4. Data Collection and Processing
The stimulation and the signal collection were accomplished through A/D-D/A digital-analog conversions with Digidata 1440 (Molecular Devices) and pCLAMP software (Version 10.2, Molecular Devices); the signal was amplified with a patch clamp amplifier (Multiclamp 700B, Molecular Devices), and filtered at 1 KHz. The data were further analyzed and subjected to the curve fitting with Clampfit (Version 10.2, Molecular Devices) and Prism. The data were expressed as mean value±standard deviation. The IC50 value was obtained by the fitting based on the Logistic equation:
[formula] • y: the inhibitory percent; max: 100%; min: 0%; [drug]: the concentration of the tested substance; nH: the slope rate; IC50: the half maximal inhibitory concentration of the tested substance.

3T3 cells = assay: In vitro cellular inhibitory activity, h-PDGF-BB stimulated 3T3 proliferation; format: cell-based; details: Mus musculus, NIH3T3; h-PDGF-BB 10 ng/ml, incubated for 40 hours, absorbance at 490 nm; read-out: ED50 for the 3T3 in vitro cells
Experimental: (§4) (1) Thawing cells and Passing cells.
(§5) The 3T3 cells were resuspended in a culture medium containing 10% fetal bovine serum, wherein the cell concentration was 5×10^4/ml. The cell suspension was added to a 96-well plate with 100 μL per well, and incubated overnight; the HUVEC cells were resuspended in a culture medium containing 10% heat-inactivated fetal bovine serum, wherein the cell concentration was 7.5×10^4/ml. The cell suspension was added to a 96-well plate with 100 μL per well. • (3) Treating with drugs: the compounds were diluted to different concentrations, and 60 μLh-PDGF-BB (3T3 cells) and 40 ng/ml h-VEGF-A (HUVEC cells) were added and incubated for 1 hour. • (4) 100 μL of a solution containing the compound and h-PDGF-BB (h-VEGF-A, for the HUVEC cells) was added to a cell culture plate, wherein the final concentration of h-PDGF-BB was 10 ng/ml, the final concentration of h-VEGF-A was 10 ng/ml, and the final concentration for the compounds were 10, 3.3333, 1.1111, 0.3704, 0.1235, 0.0412, 0.0137, 0.0046, and 0.0015 μM. The plate was incubated for 40 hours, and the HUVEC cells were incubated for 89 hours. To each well was added 20 μL Promega Substrate, and the plate was incubated at 37° C. for 7.5 hours, and the HUVEC cells were incubated for 11.5 hours. Then the plate was placed in a microplate reader to read the absorbance at 490 nm. • (5) Data processing
(§6) The curve of the compound concentration vs. Net OD was plotted, wherein Net OD=Compound OD−min. OD. ED50 was calculated according to the following equation: Conc. ED50(x)=(y−b)/a, y=Calculated Net OD for IC50, a=slope, b=intercept.

HUVEC cells = assay: In vitro cellular inhibitory activity, h-VEGF-A stimulated HUVEC proliferation; format: cell-based; details: Homo sapiens, h-VEGF-A 10 ng/ml, incubated for 89 hours, absorbance at 490 nm, read-out: ED50 for the HUVEC in vitro cells
Experimental: as §4, §5, §6

FGFR1 = target: T3, FGFR1 (Homo sapiens, UniProt P11362); assay: In vitro enzymology inhibitory activity (Caliper mobility shift kinase assay); format: biochemical; details: reaction 1 hour at 28° C., FAM-labelled peptide and ATP
T3 construct: purchased Carna
Experimental: as §1, §2, §3

Sequence of hERG potassium channel (Q12809 whole entry): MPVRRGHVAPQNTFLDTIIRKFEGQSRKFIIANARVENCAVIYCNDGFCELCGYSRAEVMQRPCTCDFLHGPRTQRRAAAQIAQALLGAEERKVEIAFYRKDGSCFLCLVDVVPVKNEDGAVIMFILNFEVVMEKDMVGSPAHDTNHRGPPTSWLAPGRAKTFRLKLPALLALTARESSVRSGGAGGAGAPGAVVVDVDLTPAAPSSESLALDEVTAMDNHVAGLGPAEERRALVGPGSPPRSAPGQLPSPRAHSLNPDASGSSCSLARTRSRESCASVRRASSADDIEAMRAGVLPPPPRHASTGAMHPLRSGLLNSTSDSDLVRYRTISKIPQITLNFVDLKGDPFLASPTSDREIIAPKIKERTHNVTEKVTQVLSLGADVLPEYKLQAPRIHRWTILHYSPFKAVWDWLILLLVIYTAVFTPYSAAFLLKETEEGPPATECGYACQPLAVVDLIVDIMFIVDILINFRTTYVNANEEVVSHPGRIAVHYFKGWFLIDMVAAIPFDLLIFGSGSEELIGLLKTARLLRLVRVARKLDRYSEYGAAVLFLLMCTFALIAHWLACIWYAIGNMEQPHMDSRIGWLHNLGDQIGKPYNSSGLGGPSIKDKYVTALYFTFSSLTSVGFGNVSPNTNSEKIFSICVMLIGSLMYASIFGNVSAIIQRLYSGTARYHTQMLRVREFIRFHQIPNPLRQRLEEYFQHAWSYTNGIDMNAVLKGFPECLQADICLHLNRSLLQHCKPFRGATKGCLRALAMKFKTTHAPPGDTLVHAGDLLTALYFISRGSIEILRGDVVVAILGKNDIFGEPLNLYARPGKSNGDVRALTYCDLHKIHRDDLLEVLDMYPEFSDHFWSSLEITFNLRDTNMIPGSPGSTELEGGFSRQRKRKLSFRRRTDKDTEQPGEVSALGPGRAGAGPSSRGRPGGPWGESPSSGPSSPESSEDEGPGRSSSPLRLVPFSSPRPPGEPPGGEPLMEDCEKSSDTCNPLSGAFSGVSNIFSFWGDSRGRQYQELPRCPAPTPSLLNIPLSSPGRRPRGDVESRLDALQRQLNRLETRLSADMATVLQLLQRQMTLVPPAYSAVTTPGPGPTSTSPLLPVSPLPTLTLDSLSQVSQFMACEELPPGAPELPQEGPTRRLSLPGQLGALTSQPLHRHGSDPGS
T2 sequence (P09619 33-1106): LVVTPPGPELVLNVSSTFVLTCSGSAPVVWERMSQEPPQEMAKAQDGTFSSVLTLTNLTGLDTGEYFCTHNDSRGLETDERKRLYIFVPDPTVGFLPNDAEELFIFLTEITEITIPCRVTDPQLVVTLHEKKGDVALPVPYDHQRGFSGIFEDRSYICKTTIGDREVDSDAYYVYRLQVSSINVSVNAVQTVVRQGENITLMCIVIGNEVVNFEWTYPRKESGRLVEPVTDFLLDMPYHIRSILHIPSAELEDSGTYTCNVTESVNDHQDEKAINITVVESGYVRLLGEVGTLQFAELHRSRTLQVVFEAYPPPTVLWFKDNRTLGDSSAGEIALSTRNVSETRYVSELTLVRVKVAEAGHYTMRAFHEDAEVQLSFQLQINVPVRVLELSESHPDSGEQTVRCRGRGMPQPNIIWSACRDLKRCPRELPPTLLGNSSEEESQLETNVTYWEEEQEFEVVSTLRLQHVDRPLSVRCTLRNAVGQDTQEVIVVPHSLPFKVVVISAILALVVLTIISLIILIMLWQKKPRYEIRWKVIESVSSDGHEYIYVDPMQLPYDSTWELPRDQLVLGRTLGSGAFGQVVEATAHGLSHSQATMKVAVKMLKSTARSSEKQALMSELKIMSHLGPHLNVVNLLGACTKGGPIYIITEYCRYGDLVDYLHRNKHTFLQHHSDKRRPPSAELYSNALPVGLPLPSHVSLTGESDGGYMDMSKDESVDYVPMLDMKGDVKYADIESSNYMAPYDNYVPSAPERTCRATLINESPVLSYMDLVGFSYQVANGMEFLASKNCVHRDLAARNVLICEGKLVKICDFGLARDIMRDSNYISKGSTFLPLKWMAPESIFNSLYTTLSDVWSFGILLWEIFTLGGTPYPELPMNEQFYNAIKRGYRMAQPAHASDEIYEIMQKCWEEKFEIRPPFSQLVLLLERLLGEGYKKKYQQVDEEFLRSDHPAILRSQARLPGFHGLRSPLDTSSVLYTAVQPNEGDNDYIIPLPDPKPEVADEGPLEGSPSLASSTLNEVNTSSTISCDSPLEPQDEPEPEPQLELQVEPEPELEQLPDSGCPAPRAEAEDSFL
T1 sequence (P22607 23-806): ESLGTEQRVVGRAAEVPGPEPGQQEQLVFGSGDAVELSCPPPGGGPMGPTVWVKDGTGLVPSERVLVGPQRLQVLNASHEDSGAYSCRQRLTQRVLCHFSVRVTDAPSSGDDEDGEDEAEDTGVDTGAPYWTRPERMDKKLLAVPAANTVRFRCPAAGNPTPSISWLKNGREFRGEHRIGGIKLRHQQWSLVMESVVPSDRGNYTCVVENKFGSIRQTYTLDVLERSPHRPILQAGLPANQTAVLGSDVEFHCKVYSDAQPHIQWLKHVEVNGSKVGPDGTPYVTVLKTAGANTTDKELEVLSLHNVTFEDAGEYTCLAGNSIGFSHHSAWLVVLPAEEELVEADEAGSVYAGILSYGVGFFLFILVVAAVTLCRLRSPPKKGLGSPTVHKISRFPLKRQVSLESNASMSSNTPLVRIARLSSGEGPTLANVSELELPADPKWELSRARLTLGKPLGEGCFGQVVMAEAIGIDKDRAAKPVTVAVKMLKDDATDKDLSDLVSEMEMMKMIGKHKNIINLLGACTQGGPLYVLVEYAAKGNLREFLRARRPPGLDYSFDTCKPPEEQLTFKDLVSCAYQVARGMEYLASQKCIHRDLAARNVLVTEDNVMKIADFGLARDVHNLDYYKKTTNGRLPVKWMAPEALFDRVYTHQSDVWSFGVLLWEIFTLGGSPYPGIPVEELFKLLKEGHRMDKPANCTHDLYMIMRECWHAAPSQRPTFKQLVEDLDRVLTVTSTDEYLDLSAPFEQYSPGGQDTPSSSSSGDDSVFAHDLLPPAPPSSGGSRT
T3 sequence (P11362 22-822): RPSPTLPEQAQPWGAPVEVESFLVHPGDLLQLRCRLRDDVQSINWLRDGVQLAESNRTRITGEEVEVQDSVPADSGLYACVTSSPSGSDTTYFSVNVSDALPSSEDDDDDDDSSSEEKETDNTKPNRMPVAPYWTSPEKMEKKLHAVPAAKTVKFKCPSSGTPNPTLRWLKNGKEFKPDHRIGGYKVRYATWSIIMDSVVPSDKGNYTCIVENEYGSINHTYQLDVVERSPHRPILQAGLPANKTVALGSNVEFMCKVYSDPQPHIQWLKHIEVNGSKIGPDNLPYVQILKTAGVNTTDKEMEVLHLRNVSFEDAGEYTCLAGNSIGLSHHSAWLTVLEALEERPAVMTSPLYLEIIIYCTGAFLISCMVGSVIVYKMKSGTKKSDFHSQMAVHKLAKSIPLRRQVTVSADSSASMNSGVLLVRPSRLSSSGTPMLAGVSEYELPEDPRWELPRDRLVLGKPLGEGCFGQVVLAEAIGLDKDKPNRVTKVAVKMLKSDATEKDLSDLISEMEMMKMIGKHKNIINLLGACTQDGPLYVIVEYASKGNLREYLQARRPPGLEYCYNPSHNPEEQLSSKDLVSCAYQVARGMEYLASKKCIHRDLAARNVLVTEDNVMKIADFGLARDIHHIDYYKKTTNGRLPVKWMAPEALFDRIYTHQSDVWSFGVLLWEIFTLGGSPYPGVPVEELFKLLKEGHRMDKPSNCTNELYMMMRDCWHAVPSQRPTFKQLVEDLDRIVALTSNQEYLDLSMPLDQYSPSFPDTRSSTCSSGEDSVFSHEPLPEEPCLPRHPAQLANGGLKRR

Compound	pIC50 (hERG potassium channel)	pEC50 (HUVEC cells)	further results
COC(=O)c1ccc2c(c1)NC(=O)/C2=C(\Nc1ccc2c(c1)CCN2C(=O)CN(C)C)c1ccccc1 [Compound 2 hydrochloride, methyl(Z)-3-((1-(2-(dimethylamino)acetyl)indolin-5-ylamino)(phenyl)methylene)-2oxoindoline-6-carboxylate hydrochloride]	–	–	pIC50 (FGFR3): 6.55; pIC50 (PDGFRβ): 7.82
COC(=O)c1ccc2c(c1)NC(=O)/C2=C(\Nc1ccc2c(c1)CCN2C(=O)CN1CC(C)OC(C)C1)c1ccccc1 (stereo not drawn) [Compound 11, methyl(Z)-3-((1-(2-(2,6-dimethylmorpholine)acetyl)indolin-5-ylamino)(phenyl)methylene)-2-oxoindoline-6-carboxylate]	< 4.52	–	–
COC(=O)c1ccc2c(c1)NC(=O)/C2=C(\Nc1ccc2c(c1)CCN2C(=O)CN1CCOCC1)c1ccccc1 [Compound 7 hydrochloride]	–	–	pEC50 (3T3 cells): 7.15 to 7.30
COC(=O)c1ccc2c(c1)NC(=O)/C2=C(\Nc1ccc2c(c1)CCN2C(=O)Cn1cncn1)c1ccccc1 [Compound 13, methyl(Z)-3-((1-(2-(1H-1,2,4-triazol-1-yl)acetyl)indolin-5-ylamino)(phenyl)methylene)-2-oxoindoline-6-carboxylate]	< 4.52	–	–
COC(=O)c1ccc2c(c1)NC(=O)/C2=C(\Nc1ccc2c(c1)CCN2C(=O)CN1CCN(C)CC1)c1ccc(F)cc1 [Compound 3]	–	6.59 to 6.74	pEC50 (3T3 cells): 5.72 to 5.89
COC(=O)c1ccc2c(c1)NC(=O)/C2=C(\Nc1ccc2c(c1)CCN2C(=O)Cn1cncn1)c1ccccc1 [Compound 13 hydrochloride, methyl(Z)-3-((1-(2-(1H-1,2,4-triazol-1-yl)acetyl)indolin-5-ylamino)(phenyl)methylene)-2-oxoindoline-6-carboxylate]	–	7.05 to 7.22	pIC50 (FGFR1): 6.15; pIC50 (FGFR3): 6.27; pIC50 (PDGFRβ): 7.85
COC(=O)c1ccc2c(c1)NC(=O)/C2=C(\Nc1ccc2c(c1)CCN2C(=O)CCC(=O)N(C)C)c1ccccc1 [Compound 6 hydrochloride]	–	6.55 to 6.72	–
COC(=O)c1ccc2c(c1)NC(=O)/C2=C(\Nc1ccc2c(c1)CCN2C(=O)CN1CCCC1=O)c1ccccc1 [Compound 12 hydrochloride, methyl(Z)-3-((1-(2-(2-pyrrolidon-1-yl)acetyl)indolin-5-ylamino)(phenyl)methylene)-2-oxoindoline-6-carboxylate]	–	7.52 to 7.70	pIC50 (FGFR3): 5.76; pIC50 (PDGFRβ): 7.72
COC(=O)c1ccc2c(c1)NC(=O)/C2=C(\Nc1ccc2c(c1)CCN2C(=O)CN1CCOCC1)c1ccccc1 [Compound 7]	< 4.52	7.00 to 7.15	–
COC(=O)c1ccc2c(c1)NC(=O)/C2=C(\Nc1ccc2c(c1)CCN2C(=O)CN1CCOCC1)c1ccc(F)cc1 [Compound 9, methyl(Z)-3-((4-fluorophenyl)(1-(2-morpholinylacetyl)indolin-5-ylamino)methylene)-2-oxoindoline-6-carboxylate]	< 4.52	–	–
COC(=O)c1ccc2c(c1)NC(=O)/C2=C(\Nc1ccc2c(c1)CCN2C(=O)CN1CCC(O)CC1)c1ccccc1 [Compound 8]	–	7.00 to 7.15	–
COC(=O)c1ccc2c(c1)NC(=O)/C2=C(\Nc1ccc2c(c1)CCN2C(=O)Cn1cccn1)c1ccccc1 [Compound 14 hydrochloride, methyl(Z)-3-((1-(2-(1H-pyrazol-1-yl)acetyl)indolin-5-ylamino)(phenyl)methylene)-2-oxoindoline-6-carboxylate]	–	7.00 to 7.15	pIC50 (FGFR3): 5.40; pIC50 (PDGFRβ): 7.62
COC(=O)c1ccc2c(c1)NC(=O)/C2=C(\Nc1ccc2c(c1)CCN2C(=O)Cn1cccn1)c1ccccc1 [Compound 14, methyl(Z)-3-((1-(2-(1H-pyrazol-1-yl)acetyl)indolin-5-ylamino)(phenyl)methylene)-2-oxoindoline-6-carboxylate]	< 4.52	–	–
COC(=O)c1ccc2c(c1)NC(=O)/C2=C(\Nc1ccc(N(C)C(=O)CN2CCN(C)CC2)cc1)c1ccccc1 [Intedanib (BIBF-1120), Intedanib, reference compound]	5.31	–	–
COC(=O)c1ccc2c(c1)NC(=O)/C2=C(\Nc1ccc2c(c1)CCN2C(=O)CN1CC(C)OC(C)C1)c1ccccc1 (stereo not drawn) [Compound 11 hydrochloride, methyl(Z)-3-((1-(2-(2,6-dimethylmorpholine)acetyl)indolin-5-ylamino)(phenyl)methylene)-2-oxoindoline-6-carboxylate]	–	7.10 to 7.30	–
CCOC(=O)c1ccc2c(c1)NC(=O)/C2=C(\Nc1ccc2c(c1)CCN2C(=O)CN1CCOCC1)c1ccccc1 [Compound 10, ethyl(Z)-3-((1-(2-morpholinylacetyl)indolin-5-ylamino)(phenyl)methylene)-2-oxoindoline-6-carboxylate]	< 4.52	–	–
CCOC(=O)c1ccc2c(c1)NC(=O)/C2=C(\Nc1ccc2c(c1)CCN2C(=O)CN1CCN(C)CC1)c1ccccc1 [Compound 4]	–	6.77 to 6.92	–
COC(=O)c1ccc2c(c1)NC(=O)/C2=C(\Nc1ccc2c(c1)CCN2C(=O)CN1CCCC1=O)c1ccccc1 [Compound 12, methyl(Z)-3-((1-(2-(2-pyrrolidon-1-yl)acetyl)indolin-5-ylamino)(phenyl)methylene)-2-oxoindoline-6-carboxylate]	< 4.52	–	–
COC(=O)c1ccc2c(c1)NC(=O)/C2=C(\Nc1ccc2c(c1)CCN2C(=O)CC1CCN(C)CC1)c1ccccc1 [Compound 5]	–	6.82 to 7.00	pEC50 (3T3 cells): 5.91 to 6.09
